# ChEMBL document CHEMBL2202961, “Antiproliferative activity of salinomycin and its derivatives” (Bioorg Med Chem Lett, 2012)
# pIC50: −log10 of the molar value.
# Legend:
# [1] = tested on: HL-60; test: Cytotoxicity against human HL60 cells incubated for 72 hrs by MTT assay; details: HL-60, 72 h
# [2] = tested on: HL-60; test: Resistance index, ratio of IC50 for vincristine-resistant human HL60/Vinc cells to IC50 for parental human HL60 cells; assay type: functional
# [3] = Cytotoxicity against vincristine-resistant human HL60/Vinc cells incubated for 72 hrs by MTT assay; assay type: functional, cell-based
# [4] = Cytotoxicity against doxorubicin-resistant human LoVo/DX cells incubated for 72 hrs by MTT assay; assay type: functional, cell-based
# [5] = tested on: LoVo; test: Resistance index, ratio of IC50 for doxorubicin-resistant human LoVo/DX cells to IC50 for parental human LoVo cells; assay type: functional
# [6] = tested on: BALB/3T3; test: Selectivity index, ratio of IC50 for mouse BALB/3T3 cells to IC50 for human HL60 cells; assay type: functional
# [7] = tested on: BALB/3T3; test: Selectivity index, ratio of IC50 for mouse BALB/3T3 cells to IC50 doxorubicin-resistant human LoVo/DX cells
# [8] = tested on: LoVo; test: Cytotoxicity against human LoVo cells incubated for 72 hrs by MTT assay; assay type: functional, cell-based
# [9] = tested on: BALB/3T3; test: Cytotoxicity against mouse BALB/3T3 cells incubated for 72 hrs by MTT assay; assay type: cell-based; details: BALB/3T3, 72 h
# [10] = tested on: BALB/3T3; test: Selectivity index, ratio of IC50 for mouse BALB/3T3 cells to IC50 for human vincristine-resistant human HL60/Vinc cells; assay type: functional
# [11] = tested on: LoVo; test: Selectivity index, ratio of IC50 for mouse BALB/3T3 cells to IC50 for human LoVo cells; assay type: functional
# [12] = tested on: Staphylococcus aureus; test: Antimicrobial activity against methicillin-resistant Staphylococcus aureus; assay type: functional
SMILES,pIC50 [1],Ratio IC50 [2],pIC50 [3],pIC50 [4],Ratio IC50 [5],Ratio IC50 [6],Ratio IC50 [7],pIC50 [8],pIC50 [9],Ratio IC50 [10],Ratio IC50 [11],MIC [12] [mg/L]
CC[C@@H](C(=O)[C@@H](C)[C@@H](O)[C@H](C)[C@@H]1O[C@@H]([C@@H](CC)C(=O)NCc2ccccc2)CC[C@@H]1C)[C@H]1O[C@]2(C=C[C@@H](O)[C@]3(CC[C@@](C)([C@H]4CC[C@](O)(CC)[C@H](C)O4)O3)O2)[C@H](C)C[C@@H]1C,5.44,1.66,5.22,5.48,0.82,2,2.19,5.40,5.14,1.21,1.81,
CC[C@@H](C(=O)[C@@H](C)[C@@H](O)[C@H](C)[C@@H]1O[C@@H]([C@@H](CC)C(=O)NCCOCCOCCOC)CC[C@@H]1C)[C@H]1O[C@]2(C=C[C@@H](O)[C@]3(CC[C@@](C)([C@H]4CC[C@](O)(CC)[C@H](C)O4)O3)O2)[C@H](C)C[C@@H]1C,4.60,1.17,4.54,4.51,1.03,1.57,1.28,4.52,4.41,1.34,1.31,
CC[C@@H](C(=O)[C@@H](C)[C@@H](O)[C@H](C)[C@@H]1O[C@@H]([C@@H](CC)C(=O)NCCCN2CCOCC2)CC[C@@H]1C)[C@H]1O[C@]2(C=C[C@@H](O)[C@]3(CC[C@@](C)([C@H]4CC[C@](O)(CC)[C@H](C)O4)O3)O2)[C@H](C)C[C@@H]1C,5.25,4.99,4.55,4.71,1.08,6.16,1.78,4.74,4.46,1.23,1.92,
CCCCNC(=O)[C@H](CC)[C@H]1CC[C@H](C)[C@H]([C@@H](C)[C@H](O)[C@H](C)C(=O)[C@H](CC)[C@H]2O[C@]3(C=C[C@@H](O)[C@]4(CC[C@@](C)([C@H]5CC[C@](O)(CC)[C@H](C)O5)O4)O3)[C@H](C)C[C@@H]2C)O1,5.41,1.37,5.27,5.49,0.81,2.12,2.56,5.39,5.09,1.55,2.03,
CC[C@@H](C(=O)[C@@H](C)[C@@H](O)[C@H](C)[C@@H]1O[C@@H]([C@@H](CC)C(=O)Nc2ccccc2)CC[C@@H]1C)[C@H]1O[C@]2(C=C[C@@H](O)[C@]3(CC[C@@](C)([C@H]4CC[C@](O)(CC)[C@H](C)O4)O3)O2)[C@H](C)C[C@@H]1C,5.42,1.14,5.37,5.49,0.78,1.86,2.21,5.39,5.15,1.64,1.72,
CC[C@@H](C(=O)[C@@H](C)[C@@H](O)[C@H](C)[C@@H]1O[C@@H]([C@@H](CC)C(=O)O)CC[C@@H]1C)[C@H]1O[C@]2(C=C[C@@H](O)[C@]3(CC[C@@](C)([C@H]4CC[C@](O)(CC)[C@H](C)O4)O3)O2)[C@H](C)C[C@@H]1C [SALINOMYCIN],6.36,7.82,5.46,5.21,5.61,63.81,4.51,5.95,4.55,8.16,25.3,
COc1cccc2c1C(=O)c1c(O)c3c(c(O)c1C2=O)C[C@@](O)(C(=O)CO)C[C@@H]3O[C@H]1C[C@H](N)[C@H](O)[C@H](C)O1 [DOXORUBICIN],,,6.04,4.92,,,,6.42,5.72,,,
CC[C@@H](C(=O)[C@@H](C)[C@@H](O)[C@H](C)[C@@H]1O[C@@H]([C@@H](CC)C(=O)NCCc2c[nH]c3ccccc23)CC[C@@H]1C)[C@H]1O[C@]2(C=C[C@@H](O)[C@]3(CC[C@@](C)([C@H]4CC[C@](O)(CC)[C@H](C)O4)O3)O2)[C@H](C)C[C@@H]1C,5.45,1.22,5.37,5.56,0.81,2.84,3.59,5.46,5.00,2.31,2.9,
CC[C@@H](C(=O)[C@@H](C)[C@@H](O)[C@H](C)[C@@H]1O[C@@H]([C@@H](CC)C(=O)Nc2ccc3c(c2)OCCOCCOCCOCCO3)CC[C@@H]1C)[C@H]1O[C@]2(C=C[C@@H](O)[C@]3(CC[C@@](C)([C@H]4CC[C@](O)(CC)[C@H](C)O4)O3)O2)[C@H](C)C[C@@H]1C,5.51,2.23,5.16,5.25,0.91,8.27,4.51,5.20,4.59,3.71,4.08,
CC[C@@H](C(=O)[C@@H](C)[C@@H](O)[C@H](C)[C@@H]1O[C@@H]([C@@H](CC)C(=O)On2nnc3ccccc32)CC[C@@H]1C)[C@H]1O[C@]2(C=C[C@@H](O)[C@]3(CC[C@@](C)([C@H]4CC[C@](O)(CC)[C@H](C)O4)O3)O2)[C@H](C)C[C@@H]1C,5.74,2.85,5.28,5.18,1.61,17.33,4.83,5.39,4.50,6.08,7.76,1
